Assay results as given in patent US4851436A, “HMG-CoA reductase inhibitors” (Merck & Co., Inc., priority 1987, dated 1989).

What was measured:
HMG-CoA reductase = assay: In vitro determination of HMG-CoA reductase inhibitory activity; assay type: biochemical, rat; conditions: for Relative Potency: Relative to compactin arbitrarily assigned a value of 100; for IC50: purified rat liver microsomal HMG-CoA reductase, 37° C., 40 minutes, pH 7.2
Description: The intrinsic HMG-CoA reductase inhibition activity of the claimed compounds is measured in the in vitro protocol described below:
The In Vitro Determination of HMG-CoA Reductase Activity in Liver and the In Vitro Testing of Inhibitors
The procedure to measure in vitro HMG-CoA reductase activity in rat liver involves two steps and is based upon the procedure of Alberts et al:^1
1. Preparation of liver microsomal pellets.
2. Assay of the pellet for HMG-CoA reductase activity.
Reference: 1. Alberts, et al., Proceedings of the National Academy of Science, Vol. 77, pp. 3957-61 (1980).
Microsomes are prepared from livers of 150-200 g male rats (Charles River) maintained for a week on ground chow containing 2.0% cholestyramine, a bile acid sequestrant. The rats are sacrificed by cervical dislocation, and the livers removed immediately and chilled on ice. All subsequent operation are carried out at 0°-5° C.
Buffer I (for homogenization)
Procedure: all operation at 4° C.
Purification of HMG-CoA Reductase from Microsomal Pellet
Procedure: all operations are carried out at room temperature
The complete assay system is in a total volume of 0.8 ml in phosphate buffer at pH 7.2 (100 mM) with the cofactors at the following concentrations: MgCl2 3 mM; NADP, 3 mM; glucose-6-phosphate, 10 mM; glucose-6-phosphate dehydrogenase (ED 1.1.1.49) 3.0 enzyme units; reduced glutathione, 50 mM; HMG-CoA (Glutaryl-3-^14 C) 0.2 mM (0.1 μCi) and enzyme suspension, 0.1 ml.
The frozen pellet (enzyme) is allowed to thaw at room temperature for 5 minutes and carefully mixed with a stirring rod to a slurry with 0.1 ml of phosphate buffer (pH 7.2) and then diluted to 2.0 ml with the buffer. A volume (0.1 ml) of enzyme suspension is added to each incubation tube. Compounds to be tested are diluted to an appropriate concentration and added in a volume to 10 μ before adding the enzyme. An "untreated-control" is run along with the compounds.
The complete system is placed in 16×125 mm screw-cap culture tubes and shaken uncapped in a 37° C. water bath for 40 minutes at 160 oscillations per minute. At the end of this period the reaction is stopped by the addition of 0.4 ml of 8N HCl. 3 Mg of unlabeled mevalonolactone in 0.1 ml H2 O is added and the tubes shaken as before for an additional 30 minutes at 37° C. to ensure lactonization of the biosynthetic mevalonate.
200 μl of reaction mixture are applied to Bio-Rex 5 column (5 cm in a Pasteur pipette). Elute three times with one ml each of water into a scintillation vial. Add 10 ml of Aquasol-2, shake and count.
Bio-Rex is an ion-exchange resin, obtained from Bio-Rad. It comes dry in the chloride form and only the 100-200 mesh should be used. It is swelled in water for several hours; any fine particles should be decanted off as these will impair the flow rate. The hydrated resin should be stored at 4° C.
Each assay includes 2 untreated controls plus a "killed control" (reaction is stopped immediately before incubation by addition of 0.4 ml of 8N HCl).
After subtracting killed control CPM from all samples, percent inhibition by the test compounds is calculated as follows: [formula]

[1] = Stability of the free hydroxy acid on standing; assay type: physicochemical
Description: The sodium salt of the compound II from Example 17 is redissolved in 2 ml of ethanol-water (1:1) and added to 10 ml of 1N hydrochloric acid from which the hydroxy acid is extracted with ethyl acetate. The latter solvent is washed once with water, dried, and removed in vacuo with a bath temperature not exceeding 30° C.

| Relative Potency (HMG-CoA reductase) | IC50 (HMG-CoA reductase) | SMILES | reversion of hydroxy acid to lactone [1] |
| --- | --- | --- | --- |
| 64 | 15.6 nM | CC1C=C2C=CC(C)C(CCC(O)CC(O)CC(=O)O)C2C(OC(=O)C(C)(C)CCO)C1 [n=2, R=H, R1=CH3, R2=CH3, R3=H, 7-[1,2,6,7,8,8a(R)-Hexahydro-2(S),6(R)-dimethyl-8(S)-(2,2-dimethyl-4-hydroxybutyryloxy)naphthalenyl-1(S)]-3(R),5(R)-dihydroxyheptanoic acid] | slowly reverts to the lactone on standing |
| 80 | 20 nM | C[C@H]1C=C2C=C[C@H](C)[C@H](CC[C@@H](O)C[C@@H](O)CC(=O)O)[C@H]2[C@@H](OC(=O)C(C)(C)CO)C1 [n=1, R=H, R1=CH3, R2=CH3, R3=H] |  |
| 63 | 30 nM | C[C@H]1C=C2C=C[C@H](C)[C@H](CC[C@@H](O)C[C@@H](O)CC(=O)O)[C@H]2[C@@H](OC(=O)C(C)(C)CCCO)C1 [n=3, R=H, R1=CH3, R2=CH3, R3=H] |  |
| 30 | 40 nM | CC(CCO)C(=O)O[C@H]1C[C@@H](C)C=C2C=C[C@H](C)[C@H](CC[C@@H](O)C[C@@H](O)CC(=O)O)[C@H]21 (stereo partly drawn) [n=2, R=H, R1=H, R2=CH3, R3=H] |  |
